Data taken from patent US5505944A, “Physiologically active substance NK175203, process for production thereof and pharmaceutical use thereof” (Nippon Kayaku Kabushiki Kaisha, priority 1992, dated 1996).

Tested on: bone marrow cells
Experiment: Bone marrow cell proliferation activity (uptake of [3H]-thymidine)
Assay type: cell-based, C57BL/6 mouse
Conditions: GM-CSF 100 U/ml alone, NK175203 0 μg/ml
Procedure: The femur was withdrawn from C57BL/6 mouse (10 weeks old) and the bone marrow cells were washed out in Eagle's MEM medium. After allowing to stand at 37° C. for 2 hours in 5% CO2, the supernatant was gently taken to recover the suspended cells alone. The cells were centrifuged at 1200 rpm for 5 minutes to collect the cells. After rinsing with α-MEM medium, the cells were suspended in 20% FBS-containing α-MEM medium. The thus obtained bone marrow cells were inoculated on a 96-well plate in a concentration of 7.5×10^5 cells/200 μl/well, together with the physiologically active substance NK175203 of the present invention or GM-CSF (Lantrell, M. A. et al., Proc. Natl. Acad. Sci., 8.2, 6250-6254, 1985). Incubation was then performed at 37° C. for 112 hours in 5% CO2. Finally ^3 H-thymidine of 37 KBq was added to the system. After culturing for 8 hours, uptake of ^3 H-thymidine into the cells was determined by a liquid scintillation counter.

## GM-CSF: GM-CSF (Lantrell, M. A. et al., Proc. Natl. Acad. Sci.)
  Uptake of [3H]-Thymidine, mean ± standard error: 33484.4 ± 2136.1
Reference (100%) of the GM-CSF series
  Uptake of [3H]-Thymidine, %: 100%
